In PMC2364081, “Antagonists of retinoic acid receptors (RARs) are potent growth inhibitors of prostate carcinoma cells” (British Journal of Cancer, 2001):

Experiments:
RARs = test: Binding to RARs (stated over all three subtypes); details: range over RARα, RARβ and RARγ
Description: (§1) Prostate cancer is one of the most common cancers in European and American males and has a high mortality rate (Landis et al, 1998; Rosenthal, 1998). Early disease is managed conservatively in Europe although in selected patients surgery is curative. In advanced disease, androgen ablation can produce symptomatic improvement, but the tumour often re-emerges in an androgen- independent and incurable form. One proposed treatment for androgen-independent prostate carcinoma is differentiation ther- apy, in which agents such as all-trans-retinoic acid (ATRA), 9-cis- retinoic acid and 1, 25-dihydroxyvitamin D3 (D3 ) are used to induce growth arrest, differentiation and sometimes apoptosis of the tumour cells (Liang et al, 1999; de Vos et al, 1997; Skowronski et al, 1994; Hedlund et al, 1997). ATRA and synthetic analogues exert their biological effects by binding to two families of retinoid receptors, […]. These are ligand-dependent transcription factors of the steroid/thyroid hormone nuclear receptor superfamily (Chambon 1994; Boehm et al, 1995). Activated RARs bind to retinoic acid-responsive elements (RAREs) in the promoters of genes and thus regulate gene expression. They also antagonize the activity of the tran- scription factor AP1 and thereby down-regulate the expression of some AP1-activated genes (Nagpal et al, 1995). […]

LNCaP ITS+ cells = test: Plate colony formation (clonal proliferation) assay, serum-free (ITS+)-grown LNCaP; format: cell-based, human
Description: (§2) Prostate cancer is one of the most common cancers in European and American males and has a high mortality rate (Landis et al, 1998; Rosenthal, 1998). Early disease is managed conservatively in Europe although in selected patients surgery is curative. In advanced disease, androgen ablation can produce symptomatic improvement, but the tumour often re-emerges in an androgen- independent and incurable form. One proposed treatment for androgen-independent prostate carcinoma is differentiation ther- apy, in which agents such as all-trans-retinoic acid (ATRA), 9-cis- retinoic acid and 1, 25-dihydroxyvitamin D3 (D3 ) are used to induce growth arrest, differentiation and sometimes apoptosis of the tumour cells (Liang et al, 1999; de Vos et al, 1997; Skowronski et al, 1994; Hedlund et al, 1997). ATRA and synthetic analogues exert their biological effects by binding to two families of retinoid receptors, […]. These are ligand-dependent transcription factors of the steroid/thyroid hormone nuclear receptor superfamily (Chambon 1994; Boehm et al, 1995). Activated RARs bind to retinoic acid-responsive elements (RAREs) in the promoters of genes and thus regulate gene expression. They also antagonize the activity of the tran- scription factor AP1 and thereby down-regulate the expression of some AP1-activated genes (Nagpal et al, 1995). One approach to unravelling the contributions of RAR sub-types to these actions has been the development of synthetic retinoids with selective activities at individual RARs and RXRs. For example, the diaryl- acetylenic retinoids allow separation of transactivation and AP1 antagonism functions at RAR (Nagpal et al, 1995). Recently, compounds that are selective for particular RAR sub-types have been synthesized: these include both agonists and antagonists (Chandraratna, 1995; Teng et al, 1999; Johnson et al, 1999). The functional selectivity of these compounds may open the way to achieving differentiation or apoptosis of tumour cells with minimal systemic side effects (Chandraratna, 1995). Cell lines that are commonly used in the evaluation of investiga- tional agents for prostate cancer include LNCaP, DU-145 and PC- 3. […] These lines are relatively insensitive to growth inhibition and induction of apoptosis by ATRA and by synthetic agonists. […] Fenretinide (4HPR) induces apoptosis of LNCaP and of PC-3 cells at 1-5 M and 25 µM, respectively (Pienta et al, 1993; Heish and Wu, 1997). Pfahl and colleagues examined the growth inhibitory effects of a panel of receptor-selective retinoids against DU145 and PC-3 cells and achieved complete growth inhibition and induction of apoptosis between 1 M and 10 M (Lu et al, 1999). […] Antagonists of retinoic acid receptors (RARs) are potent growth inhibitors of prostate carcinoma cells LA Hammond1 , CH Van Krinks2 , J Durham2 , SE Tomkins2 , RD Burnett3 , EL Jones1 , RAS Chandraratna3 and G Brown2 Divisions of 1 Cancer Studies and of 2 Immunity and Infection, University of Birmingham Medical School, Edgbaston, Birmingham B15 2TT, UK and 3 Retinoid Research, Allergan Inc., Irvine, California, USA Summary Novel synthetic antagonists of retinoic acid receptors (RARs) have been developed. To avoid interference by serum retinoids when testing these compounds, we established serum-free grown sub-lines (>3 years) of the prostate carcinoma lines LNCaP, PC3 and DU145. […] A component(s) of serum and of LNCaP-conditioned medium diminishes the activity of antagonists: this factor is not the most likely candidates IGF-1 and EGF. In vitro studies of RAR antagonists together with data from RAR-null mice lead to the hypothesis that RAR-regulated gene transcription is necessary for the survival and maintenance of prostate epithelium. […]

PC3 ITS+ cells = test: Plate colony formation assay, serum-free (ITS+)-grown PC3; format: cell-based, human; details: 14 days
Description: Prostate cancer is one of the most common cancers in European and American males and has a high mortality rate (Landis et al, 1998; Rosenthal, 1998). Early disease is managed conservatively in Europe although in selected patients surgery is curative. In advanced disease, androgen ablation can produce symptomatic improvement, but the tumour often re-emerges in an androgen- independent and incurable form. One proposed treatment for androgen-independent prostate carcinoma is differentiation ther- apy, in which agents such as all-trans-retinoic acid (ATRA), 9-cis- retinoic acid and 1, 25-dihydroxyvitamin D3 (D3 ) are used to induce growth arrest, differentiation and sometimes apoptosis of the tumour cells (Liang et al, 1999; de Vos et al, 1997; Skowronski et al, 1994; Hedlund et al, 1997). ATRA and synthetic analogues exert their biological effects by binding to two families of retinoid receptors, the RARs (RAR, RAR and RAR) and the RXRs (RXR, RXR and RXR). These are ligand-dependent transcription factors of the steroid/thyroid hormone nuclear receptor superfamily (Chambon 1994; Boehm et al, 1995). Activated RARs bind to retinoic acid-responsive elements (RAREs) in the promoters of genes and thus regulate gene expression. They also antagonize the activity of the tran- scription factor AP1 and thereby down-regulate the expression of some AP1-activated genes (Nagpal et al, 1995). One approach to unravelling the contributions of RAR sub-types to these actions has been the development of synthetic retinoids with selective activities at individual RARs and RXRs. For example, the diaryl- acetylenic retinoids allow separation of transactivation and AP1 antagonism functions at RAR (Nagpal et al, 1995). Recently, compounds that are selective for particular RAR sub-types have been synthesized: these include both agonists and antagonists (Chandraratna, 1995; Teng et al, 1999; Johnson et al, 1999). The functional selectivity of these compounds may open the way to achieving differentiation or apoptosis of tumour cells with minimal systemic side effects (Chandraratna, 1995). […]

[1] = system: FBS-grown LNCaP, DU145 and PC3 cells; test: Plate colony formation assay, stated over the three FBS-grown lines; format: cell-based, human; details: 100 nM
Description: as §1

HL60 cells = test: ATRA-induced differentiation of HL60 cells to neutrophils (nitroblue tetrazolium reduction); format: cell-based, human; details: antagonist at 100 nM added with 100 nM ATRA
Description: as §1

[2] = system: primary prostate carcinoma cells; test: Growth of primary prostate carcinoma cells (flask cultures, passage 2); format: cell-based, human; details: 10 and 100 nM, two patients, days 3 and 6
Description: as §1

RARβ = biological target: T1, RARβ (Homo sapiens, UniProt P10826); test: Binding to baculovirus-expressed RARβ; parameters: made in house; details: baculovirus-expressed receptor
T1 sequence (P10826 1-455): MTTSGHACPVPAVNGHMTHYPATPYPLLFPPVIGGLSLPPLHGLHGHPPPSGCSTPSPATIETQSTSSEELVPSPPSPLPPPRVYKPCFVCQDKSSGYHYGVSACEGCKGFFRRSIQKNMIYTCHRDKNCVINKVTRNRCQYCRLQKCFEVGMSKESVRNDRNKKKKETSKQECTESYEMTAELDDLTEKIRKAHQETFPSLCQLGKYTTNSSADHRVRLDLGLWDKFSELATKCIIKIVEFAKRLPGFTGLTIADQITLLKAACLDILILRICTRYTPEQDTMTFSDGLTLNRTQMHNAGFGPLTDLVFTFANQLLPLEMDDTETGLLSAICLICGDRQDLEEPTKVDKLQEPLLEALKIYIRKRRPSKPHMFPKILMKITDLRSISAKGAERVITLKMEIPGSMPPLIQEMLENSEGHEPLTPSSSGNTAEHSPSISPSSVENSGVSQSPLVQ
Description: as §2

RARγ = biological target: T2, RARγ (Homo sapiens, UniProt P13631); test: Binding to baculovirus-expressed RARγ; parameters: made in house; details: baculovirus-expressed receptor
T2 sequence (P13631 1-454): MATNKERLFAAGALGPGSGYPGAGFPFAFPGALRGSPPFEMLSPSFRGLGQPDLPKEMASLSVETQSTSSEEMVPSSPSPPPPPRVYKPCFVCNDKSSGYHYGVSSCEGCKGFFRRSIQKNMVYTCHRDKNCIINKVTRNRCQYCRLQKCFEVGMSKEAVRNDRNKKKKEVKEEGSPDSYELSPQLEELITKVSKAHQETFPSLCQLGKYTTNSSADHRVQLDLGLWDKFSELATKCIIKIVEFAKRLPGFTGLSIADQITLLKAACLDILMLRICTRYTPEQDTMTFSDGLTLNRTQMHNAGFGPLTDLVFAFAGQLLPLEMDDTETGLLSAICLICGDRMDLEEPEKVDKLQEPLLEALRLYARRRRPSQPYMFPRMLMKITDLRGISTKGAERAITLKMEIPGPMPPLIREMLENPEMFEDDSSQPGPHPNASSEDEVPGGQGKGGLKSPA
Description: as §2

SMILES: CCc1ccc(C2=CC(C)(C)Sc3ccc(C#Cc4ccc(C(=O)O)cc4)cc32)cc1 [AGN194310]
- Kd (RARs): 2 to 5 nM
- growth inhibitory effect in combination with TTNPB (LNCaP ITS+ cells; 50 nM AGN194310 together with 100 nM TTNPB): almost complete reversal
- colony formation (% of control values) (LNCaP ITS+ cells; 50 nM alone (Figure 3)): 41%
- colony formation (% of control values) (LNCaP ITS+ cells; 100 nM AGN194310 together with 100 nM TTNPB): 40%
- colony formation (% of control values) (LNCaP ITS+ cells; 100 nM alone (Figure 3)): 14%
- colony formation (% of control) (LNCaP ITS+ cells; 100 nM, ITS+ cells plated in ITS+ medium (Figure 5A)): < 1%
- growth inhibitory activity in LNCaP-conditioned medium (LNCaP ITS+ cells; 100 nM, LNCaP ITS+ cells plated in LNCaP-conditioned medium): abrogated
- inhibition of colony formation (LNCaP ITS+ cells; 100 nM, with EGF at 1, 10 and 20 ng/ml): > 95%
- IC50 (LNCaP ITS+ cells; LNCaP, serum-free (ITS+), 14 days): 16 nM
- concentration required to attain maximum growth inhibition (LNCaP ITS+ cells; colony assay): 100 nM
- IC50 (PC3 ITS+ cells): 18 nM
- inhibition of colony formation [1]: 11-23%
- percentage of mature cells (HL60 cells): 5%
- cell growth of primary lines [2]: substan- tial growth inhibition
- Kd (RARβ): 2 nM
- Kd (RARγ): 5 nM
